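Interpolation was linear, between the two tested concentrations surrounding the appropriate level; five concentrations were tested over 48 hours in 96-well plates. Abbreviation: GI50, concentration required for 50% inhibition of growth. TGI denotes the concentration required for complete inhibition of growth.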
Columns and labels:
Test in all cases: growth of human tumour cells (NCI), 48 h
SK-MEL-5 melanoma = system: SK-MEL-5 melanoma
KM12 colon = system: KM12 colon
OVCAR-4 ovarian = system: OVCAR-4 ovarian
CAKI-1 renal = system: CAKI-1 renal
SNB-75 CNS = system: SNB-75 CNS
MDA-MB-468 breast = system: MDA-MB-468 breast
SF-268 CNS = system: SF-268 CNS
CCRF-CEM leukemia = system: CCRF-CEM leukemia
HOP-92 NSCLC = system: HOP-92 NSCLC
HOP-62 NSCLC = system: HOP-62 NSCLC
A549 NSCLC = system: A549 NSCLC
HS 578T breast = system: HS 578T breast
NCI-H226 lung = system: NCI-H226 lung
SF-539 CNS = system: SF-539 CNS
SF-295 CNS = system: SF-295 CNS
RXF 393 renal = system: RXF 393 renal
MDA-MB-231 breast = system: MDA-MB-231 breast
SNB-19 CNS = system: SNB-19 CNS
EKVX NSCLC = system: EKVX NSCLC
NCI-H460 lung = system: NCI-H460 lung
MDA-MB-435 = system: MDA-MB-435
SK-OV-3 ovarian = system: SK-OV-3 ovarian
LOX IMVI melanoma = system: LOX IMVI melanoma
OVCAR-5 ovarian = system: OVCAR-5 ovarian
OVCAR-8 ovarian = system: OVCAR-8 ovarian
M14 melanoma = system: M14 melanoma
K-562 leukemia = system: K-562 leukemia
SK-MEL-28 melanoma = system: SK-MEL-28 melanoma
ACHN renal = system: ACHN renal
TK-10 renal = system: TK-10 renal
A498 renal = system: A498 renal
MOLT-4 leukemia = system: MOLT-4 leukemia
BT-549 breast = system: BT-549 breast
786-0 renal = system: 786-0 renal
NCI-H522 lung = system: NCI-H522 lung
HCC-2998 colon = system: HCC-2998 colon
RPMI-8226 leukemia = system: RPMI-8226 leukemia
UACC-257 melanoma = system: UACC-257 melanoma
SN12C renal = system: SN12C renal
NCI-H23 lung = system: NCI-H23 lung
OVCAR-3 ovarian = system: OVCAR-3 ovarian
HCT-15 colon = system: HCT-15 colon
DU-145 prostate = system: DU-145 prostate
COLO 205 colon = system: COLO 205 colon
MALME-3M melanoma = system: MALME-3M melanoma
SW-620 colon = system: SW-620 colon
NCI/ADR-RES ovarian = system: NCI/ADR-RES ovarian
SK-MEL-2 melanoma = system: SK-MEL-2 melanoma
UACC-62 melanoma = system: UACC-62 melanoma
IGROV1 ovarian = system: IGROV1 ovarian
U251 CNS = system: U251 CNS
HCT-116 colon = system: HCT-116 colon

In the case of `Cc1cccc(-c2nc(Nc3cccc(S(N)(=O)=O)c3)c3ccccc3n2)c1`, the GI50 (SK-MEL-5 melanoma) is reported as > 100 µM, the TGI (SK-MEL-5 melanoma) is reported as > 100 µM and the GI50 (KM12 colon) is reported as 3.62 µM. For the same molecule, the TGI (KM12 colon) was > 100 µM, the GI50 (OVCAR-4 ovarian) was > 100 µM and the TGI (OVCAR-4 ovarian) was > 100 µM. For the same molecule, the GI50 (CAKI-1 renal) was 13.8 µM, the TGI (CAKI-1 renal) was > 100 µM and the GI50 (SNB-75 CNS) was > 100 µM. For the same molecule, the TGI (SNB-75 CNS) was > 100 µM, the GI50 (MDA-MB-468 breast) was 5.57 µM and the TGI (MDA-MB-468 breast) was > 100 µM. The GI50 (SF-268 CNS) was > 100 µM, the TGI (SF-268 CNS) was > 100 µM and the GI50 (CCRF-CEM leukemia) was 4.77 µM. The TGI (CCRF-CEM leukemia) was > 100 µM, the GI50 (HOP-92 NSCLC) was 34.9 µM and the TGI (HOP-92 NSCLC) was > 100 µM. For the same molecule, the GI50 (HOP-62 NSCLC) was > 100 µM, the TGI (HOP-62 NSCLC) was > 100 µM and the GI50 (A549 NSCLC) was 10.9 µM. For the same molecule, the TGI (A549 NSCLC) was > 100 µM, the GI50 (HS 578T breast) was > 100 µM and the TGI (HS 578T breast) was > 100 µM. The GI50 (NCI-H226 lung) was > 100 µM, the TGI (NCI-H226 lung) was > 100 µM and the GI50 (SF-539 CNS) was 6.2 µM. For the same molecule, the TGI (SF-539 CNS) was 25.1 µM, the GI50 (SF-295 CNS) was 4.43 µM and the TGI (SF-295 CNS) was > 100 µM. For the same molecule, the GI50 (RXF 393 renal) was 6.23 µM, the TGI (RXF 393 renal) was > 100 µM and the GI50 (MDA-MB-231 breast) was 6.52 µM. For the same molecule, the TGI (MDA-MB-231 breast) was > 100 µM, the GI50 (SNB-19 CNS) was > 100 µM and the TGI (SNB-19 CNS) was > 100 µM. For the same molecule, the GI50 (EKVX NSCLC) was > 100 µM, the TGI (EKVX NSCLC) was > 100 µM and the GI50 (NCI-H460 lung) was 7.2 µM. For the same molecule, the TGI (NCI-H460 lung) was 43 µM, the GI50 (MDA-MB-435) was > 100 µM and the TGI (MDA-MB-435) was > 100 µM. The GI50 (SK-OV-3 ovarian) was > 100 µM, the TGI (SK-OV-3 ovarian) was > 100 µM and the GI50 (LOX IMVI melanoma) was 4.76 µM. For the same molecule, the TGI (LOX IMVI melanoma) was > 100 µM, the GI50 (OVCAR-5 ovarian) was > 100 µM and the TGI (OVCAR-5 ovarian) was > 100 µM. For the same molecule, the GI50 (OVCAR-8 ovarian) was 9.82 µM, the TGI (OVCAR-8 ovarian) was > 100 µM and the GI50 (M14 melanoma) was > 100 µM. For the same molecule, the TGI (M14 melanoma) was > 100 µM, the GI50 (K-562 leukemia) was 3.23 µM and the TGI (K-562 leukemia) was > 100 µM. The GI50 (SK-MEL-28 melanoma) was > 100 µM, the TGI (SK-MEL-28 melanoma) was > 100 µM and the GI50 (ACHN renal) was 7.93 µM. For the same molecule, the TGI (ACHN renal) was > 100 µM, the GI50 (TK-10 renal) was > 100 µM and the TGI (TK-10 renal) was > 100 µM. The GI50 (A498 renal) was > 100 µM, the TGI (A498 renal) was > 100 µM and the GI50 (MOLT-4 leukemia) was 4.1 µM. The TGI (MOLT-4 leukemia) was > 100 µM, the GI50 (BT-549 breast) was > 100 µM and the TGI (BT-549 breast) was > 100 µM. The GI50 (786-0 renal) was 8.53 µM, the TGI (786-0 renal) was > 100 µM and the GI50 (NCI-H522 lung) was 5.69 µM. The TGI (NCI-H522 lung) was > 100 µM, the GI50 (HCC-2998 colon) was 4.98 µM and the TGI (HCC-2998 colon) was > 100 µM. For the same molecule, the GI50 (RPMI-8226 leukemia) was 7.66 µM, the TGI (RPMI-8226 leukemia) was > 100 µM and the GI50 (UACC-257 melanoma) was > 100 µM. The TGI (UACC-257 melanoma) was > 100 µM, the GI50 (SN12C renal) was > 100 µM and the TGI (SN12C renal) was > 100 µM. The GI50 (NCI-H23 lung) was 30.6 µM, the TGI (NCI-H23 lung) was > 100 µM and the GI50 (OVCAR-3 ovarian) was 9.42 µM. For the same molecule, the TGI (OVCAR-3 ovarian) was > 100 µM, the GI50 (HCT-15 colon) was 3.53 µM and the TGI (HCT-15 colon) was > 100 µM. For the same molecule, the GI50 (DU-145 prostate) was > 100 µM, the TGI (DU-145 prostate) was > 100 µM and the GI50 (COLO 205 colon) was > 100 µM. For the same molecule, the TGI (COLO 205 colon) was > 100 µM, the GI50 (MALME-3M melanoma) was > 100 µM and the TGI (MALME-3M melanoma) was > 100 µM. The GI50 (SW-620 colon) was 17.4 µM, the TGI (SW-620 colon) was > 100 µM and the GI50 (NCI/ADR-RES ovarian) was 7.08 µM. The TGI (NCI/ADR-RES ovarian) was > 100 µM, the GI50 (SK-MEL-2 melanoma) was > 100 µM and the TGI (SK-MEL-2 melanoma) was > 100 µM. The GI50 (UACC-62 melanoma) was > 100 µM, the TGI (UACC-62 melanoma) was > 100 µM and the GI50 (IGROV1 ovarian) was > 100 µM. The TGI (IGROV1 ovarian) was > 100 µM, the GI50 (U251 CNS) was 11.6 µM and the TGI (U251 CNS) was > 100 µM. The GI50 (HCT-116 colon) was 8.09 µM and the TGI (HCT-116 colon) was > 100 µM.

Source: PubChem BioAssay (NCI)
